# Read-outs that look alike come from different tables or passages of the source.
# How the values were obtained:
# [1] = tested on: Phoma sp.; assay: MIC against rare onychomycosis pathogens (CLSI M 38-A); assay type: cell-based; settings: 3 isolates; NB-002 as μg CPC/ml
# Source text: (§1) Methods: All fungi were from patients, many of which had onychomycosis or another tinea infection.
# [2] = tested on: Trichophyton verrucosum; assay: as above; assay type: cell-based; settings: 3 isolates; NB-002 as μg CPC/ml
# Source text: as §1
# [3] = tested on: Scytalydium spp.; assay: as above; assay type: cell-based; settings: 10 isolates; NB-002 as μg CPC/ml
# Source text: as §1
# [4] = tested on: Scopulariopsis spp.; assay: as above; assay type: cell-based; settings: 5 isolates; NB-002 as μg CPC/ml
# Source text: as §1
# [5] = tested on: Chaetomium spp.; assay: as above; assay type: cell-based; settings: 3 isolates; NB-002 as μg CPC/ml
# Source text: as §1
# [6] = tested on: Paecilomyces spp.; assay: as above; assay type: cell-based; settings: 4 isolates; NB-002 as μg CPC/ml
# Source text: as §1
# [7] = tested on: Epicoccum nigrum; assay: as above; assay type: cell-based; settings: 3 isolates; NB-002 as μg CPC/ml
# Source text: as §1
# [8] = tested on: Curvularia spp.; assay: as above; assay type: cell-based; settings: 3 isolates; NB-002 as μg CPC/ml
# Source text: as §1
# [9] = tested on: Aspergillus spp.; assay: as above; assay type: cell-based; settings: 5 isolates; NB-002 as μg CPC/ml
# Source text: as §1
# [10] = tested on: Alternaria spp.; assay: as above; assay type: cell-based; settings: 3 isolates; NB-002 as μg CPC/ml
# Source text: as §1
# [11] = tested on: Scedosporium spp.; assay: as above; assay type: cell-based; settings: 5 isolates; NB-002 as μg CPC/ml
# Source text: as §1
# [12] = tested on: Trichophyton soundanense; assay: as above; assay type: cell-based; settings: 3 isolates; NB-002 as μg CPC/ml
# Source text: as §1
# [13] = tested on: Candida albicans isolates; assay: MIC/MFC microtiter broth dilution; assay type: cell-based; settings: NB-002 as μg CPC/ml
# [14] = tested on: Trichophyton rubrum; assay: microbe, parasite or virus in culture; assay type: cell-based
# Experimental: (§2) Phenotypically resistant isolates were tested for MICs and compared to parental MICs.
# [15] = tested on: Epidermophyton floccosum; assay: microbe, parasite or virus in culture; assay type: cell-based; settings: read-out: Final MIC
# Experimental: as §2
# [16] = tested on: Trichophyton mentagrophytes; assay: microbe, parasite or virus in culture; assay type: cell-based
# Experimental: as §2
# [17] = tested on: Fusarium spp.; assay: MIC against rare onychomycosis pathogens (CLSI M 38-A); assay type: cell-based; settings: 10 isolates; NB-002 as μg CPC/ml
# Source text: as §1
# [18] = tested on: Acremonium spp.; assay: as above; assay type: cell-based; settings: 5 isolates; NB-002 as μg CPC/ml
# Source text: as §1
# [19] = tested on: Epidermophyton floccosum; assay: MIC/MFC microtiter broth dilution; assay type: cell-based; settings: n = 6 isolates; NB-002 as μg CPC/ml
# [20] = tested on: Trichophyton mentagrophytes; assay: MIC/MFC microtiter broth dilution; assay type: cell-based; settings: for MIC90 / MIC50: Trichophyton mentagrophytes; for MFC50 / MFC90 / MIC range: n = 14 isolates, NB-002 as μg CPC/ml
# [21] = tested on: T. rubrum; assay: Time-kill experiments on mycelia and microconidia; assay type: cell-based, Trichophyton rubrum
# Experimental: Time-kill experiments. […] Part of the conidial suspension was pelleted and resuspended in RPMI 1640 medium and grown for 16-18 hours overnight at room temperature to allow germination of microconidia. After germination, the hyphae were collected by centrifugation and resuspended in distilled water. […] Colony-forming units were counted after four days of incubation at 35° C.
# [22] = tested on: Microsporum canis; assay: MIC/MFC microtiter broth dilution; assay type: cell-based; settings: M. canis n = 10 (tinea capitis species)
# [23] = tested on: T. violaceum; assay: MIC against species that cause tinea capitis; assay type: cell-based; settings: T. violaceum n = 10
# [24] = tested on: M. audouinii; assay: MIC against species that cause tinea capitis; assay type: cell-based; settings: M. audouinii n = 10
# [25] = tested on: Trichophyton tonsurans; assay: MIC/MFC microtiter broth dilution; assay type: cell-based
# [26] = tested on: Trichophyton rubrum; assay type: cell-based; settings: 10^7 conidia plated; NBD031-b; drug plate 0.125 μg/ml
# [27] = cited from earlier work
# [28] = Azole-Resistant isolates (n = 24)
# [29] = Azole-Susceptible isolates (n = 10)
# [30] = read-out: Final MIC, isolate NBD031-a, selected on NB-002 drug plate 16 μg/ml
# [31] = read-out: Final MIC, isolate NBD031-b, selected on itraconazole drug plate 0.125 μg/ml
# [32] = read-out: Final MIC, isolate NBD031-c, selected on terbinafine drug plate 0.125 μg/ml
# [33] = read-out: Final MIC, isolate NBD012-a, selected on NB-002 drug plate 8 μg/ml
# [34] = read-out: Final MIC, isolate NBD012-b, selected on NB-002 drug plate 16 μg/ml
# [35] = read-out: Final MIC, isolate NBD012-c, selected on NB-002 drug plate 32 μg/ml
# [36] = read-out: Final MIC, isolate NBD012-d, selected on terbinafine drug plate 0.0625 μg/ml
# [37] = read-out: Final MIC, isolate NBD013-a, selected on itraconazole drug plate […]
# [38] = read-out: Final MIC, isolate NBD014-a, selected on NB-002 drug plate 32 μg/ml
# [39] = Candida albicans, Azole-Resistant isolates (n = 24), read-out: MIC90
# [40] = Candida albicans, Azole-Susceptible isolates (n = 10), read-out: MIC90
# [41] = T. tonsurans n = 10 (tinea capitis species)
MIC50 ([20]; read-out: MIC50) [µg/mL],Structure (SMILES),MIC range [1] [µg/mL],MIC range [2],MIC range [5] [µg/mL],MIC range [7] [µg/mL],MIC range [8] [µg/mL],MIC range [9] [µg/mL],MIC range [10] [µg/mL],MIC range [12] [µg/mL],"MFC90 [13, 28] [µg/mL]","MFC90 [13, 29] [µg/mL]",MIC range [19] [µg/mL],MIC90 [20] [µg/mL],MFC50 [20] [µg/mL],MFC90 [20] [µg/mL],MIC range [20] [µg/mL],"MIC90 [13, 39] [µg/mL]","MIC90 [13, 40] [µg/mL]",further results
,C[C@@H]1[C@H](O)[C@@H](C)/C=C/C=C/C=C/C=C/C=C/C=C/C=C/[C@H](O[C@@H]2O[C@H](C)[C@@H](O)[C@H](N)[C@@H]2O)C[C@@H]2O[C@](O)(C[C@@H](O)C[C@@H](O)[C@H](O)CC[C@@H](O)C[C@@H](O)CC(=O)O[C@H]1C)C[C@H](O)[C@H]2C(=O)O [Amphotericin B],0.5 to 2,0.125 to 0.25 µg/mL,0.5 to 4,0.25 to 1,0.125 to 1,1 to 4,1,0.125 to 0.25,4,2,,,,,,,,"MIC range [3]: 0.5 to 1 µg/mL; MIC range [4]: >16 µg/mL; MIC range [6]: >16 µg/mL; MIC range [11]: >16 µg/mL; MIC90 [13, 28]: 2 µg/mL; MIC90 [13, 29]: 2 µg/mL"
0.25,Clc1ccc(COC(Cn2ccnc2)c2ccc(Cl)cc2Cl)cc1 (stereo not shown) [Econazole],,,,,,,,,,,0.0625 to 0.125,0.25,8,>16,0.125 to 0.25,,,MFC Range [19]: 0.0625 to 4 µg/mL
,OC(Cn1cncn1)(Cn1cncn1)c1ccc(F)cc1F [Fluconazole],,,,,,,,,>64,>64,,,,,,> 64,0.5,
0.5,COC1=CC(=O)C[C@@H](C)[C@]12Oc1c(Cl)c(OC)cc(OC)c1C2=O [Griseofulvin],,,,,,,,,,,1 to 2,2,8,>16,0.25 to 4,,,"MIC50 [22]: 0.25 µg/mL; MIC90 [22]: 0.5 µg/mL; MIC range ([22]; in µg/mL): 0.25-0.5; MFC Range [19]: 1 to 16 µg/mL; MIC50 [23]: 4 µg/mL; MIC90 [23]: 4 µg/mL; MIC range ([23]; in µg/mL): 1.0-8.0; MIC50 [24]: 0.25 µg/mL; MIC90 [24]: 1 µg/mL; MIC range ([24]; in µg/mL): 0.12-1.0; MIC range ([25]; T. tonsurans (n = 6), NB-002 as μg CPC/ml): 0.5 to 1 µg/mL; MIC50 [25, 41]: 0.5 µg/mL; MIC90 [25, 41]: 1 µg/mL; MIC range ([25]; T. tonsurans n = 10 (tinea capitis species), in µg/mL): 0.5-1.0"
,CCC(C)n1ncn(-c2ccc(N3CCN(c4ccc(OCC5COC(Cn6cncn6)(c6ccc(Cl)cc6Cl)O5)cc4)CC3)cc2)c1=O (stereo not shown) [Itraconazole],0.06 to 0.5,0.06 to 0.125 µg/mL,0.5 to 1,0.25 to 0.5,0.125 to 0.25,0.06 to 1,0.25 to 0.5,0.125 to 0.25,>16,>16,0.125 to 0.5,0.5,8,>16,0.0625 to 0.5,> 16,0.5,"MIC [14, 30]: 0.0625 µg/mL; MIC [14, 31]: 0.0625 µg/mL; MIC [14, 32]: 0.0313 µg/mL; MIC [15]: 0.25 µg/mL; MIC [16, 33]: 0.0625 µg/mL; MIC [16, 34]: 0.0625 µg/mL; MIC [16, 35]: 0.0625 µg/mL; MIC [16, 36]: 0.0625 µg/mL; MIC [16, 37]: 0.125 µg/mL; MIC [16, 38]: 0.0625 µg/mL; # CFU recovered [26]: 2; MIC range [18]: >8 µg/mL; MIC50 [20]: 0.125 µg/mL; reduction of colony counts / activity on mycelia and microconidia ([21]; 16×MIC, up to 24 hours, nongrowth conditions (FIG. 10)): no activity"
,CN(C/C=C/C#CC(C)(C)C)Cc1cccc2ccccc12.Cl [Terbinafine hydrochloride],,,,,,,,,,,,,,,,,,solubility in ethanol ([27]; in words): soluble; solubility in methanol and dichloromethane ([27]; in words): freely soluble; solubility in water ([27]; in words): slightly soluble
,Clc1ccc(COC(Cn2ccnc2)c2ccc(Cl)cc2Cl)c(Cl)c1 (stereo not shown) [miconazole],,,,,,,,,,,,,,,,,,Ethanol Solubility [27]: 94 mg/mL; Log P [27]: 6.1; Soybean Solubility [27]: 74 mg/mL; pKa [27]: 6.67

Structure (SMILES),MIC50 ([20]; read-out: MIC50) [µg/mL],MIC range [1] [µg/mL],MIC range [2],MIC range [5] [µg/mL],MIC range [7] [µg/mL],MIC range [8] [µg/mL],MIC range [9] [µg/mL],MIC range [10] [µg/mL],MIC range [12] [µg/mL],"MFC90 [13, 28] [µg/mL]","MFC90 [13, 29] [µg/mL]",MIC range [19] [µg/mL],MIC90 [20] [µg/mL],MFC50 [20] [µg/mL],MFC90 [20] [µg/mL],MIC range [20] [µg/mL],"MIC90 [13, 39] [µg/mL]","MIC90 [13, 40] [µg/mL]",further results
Cc1cc(C2CCCCC2)n(O)c(=O)c1 [Ciclopirox],0.5,0.5 to 1,<=0.06-0.125 ug/ml,0.25 to 0.5,0.125 to 2,0.5 to 1,0.5 to 2,0.25 to 0.5,0.125 to 0.25,>32,>32,0.5,1,1,16,0.125 to 1,1,4,"MIC [14, 30]: 4 µg/mL; MIC [14, 31]: 4 µg/mL; MIC [14, 32]: 4 µg/mL; MIC [15]: 4 µg/mL; MIC [16, 33]: 4 µg/mL; MIC [16, 34]: 4 µg/mL; MIC [16, 35]: 4 µg/mL; MIC [16, 36]: 4 µg/mL; MIC [16, 37]: 4 µg/mL; MIC [16, 38]: 4 µg/mL; MIC range [3]: 0.5 to 1 µg/mL; MIC range [4]: 0.5 to 2 µg/mL; MIC range [17]: 1 to 16 µg/mL; MIC range [18]: 0.5 to 4 µg/mL; MIC range [6]: 8 to 16 µg/mL; MIC range [11]: 0.5 to 8 µg/mL; reduction in colony counts ([21]; 16×MIC or 8 μg/ml, after 8 hours, nongrowing mycelia (not microconidia), isolate NBD032): 3 log; activity against the conidial form ([21]; 16×MIC, up to 24 hours, nongrowth conditions): no activity"
